Data reported in patent publication US20260258047A1, “COMPOSITIONS USEFUL FOR MODULATING SPLICING” (Skyhawk Therapeutics, Inc., priority 2023, published 2026).

System: ATXN3 transcripts containing exon 4
Assay: ATXN3 quantitative splicing assay (qPCR, E4E5 primers/probe)
Type: cell-based
Details: Human neuroblastoma SK-N-MC cells, 24 h treatment, qPCR of transcripts containing exon 4; read-out: ATXN3 Potency - Splicing E4E5 IC50
Method: Human neuroblastoma SK-N-MC cells were plated in 384-well plates at 20,000 cells/well. Twenty-four hours after plating, cells were treated with compounds for 24 h at appropriate concentrations ranging from 30 μM to 0.6 nM (0.3% DMSO). Treated cells were lysed in 15 μL of lysis buffer, and cDNA was synthesized using the Fast Advanced Cells-to-Ct kit. Two μL of each cDNA was used in qPCR reactions to confirm the exon 4 skipped transcripts of ATXN3. A second set of primers/probe E4E5 was used to detect the transcripts containing exon 4. The third set of primers/probe E8E9 was used to detect total gene level of ATXN3. The qPCR reactions were prepared in 384-well plates in 10 μL volume, using TaqMan™ Fast Advanced Master Mix with primers and probes shown in the table below. Reactions were run in a Quant Studio 6 qPCR instrument with default settings.
The primers and probes are listed below in Table 3.

## C[C@H](F)[C@H](N)Cc1cc2c(NCc3ccncc3F)nc(Cl)nn2c1Br [Compound 1, 6-((2R,3S)-2-amino-3-fluorobutyl)-7-bromo-2-chloro-N-((3-fluoropyridin-4-yl)methyl)pyrrolo[2,1-f][1,2,4]triazin-4-amine]
  IC50: 0.01 to 100 nM

## C[C@H](F)[C@H](N)Cc1cc2c(NCc3ccncn3)nc(Cl)nn2c1Br [Compound 2, 6-((2R,3S)-2-amino-3-fluorobutyl)-7-bromo-2-chloro-N-(pyrimidin-4-ylmethyl)pyrrolo[2,1-f][1,2,4]triazin-4-amine]
  IC50: 0.01 to 100 nM

## C[C@H](F)[C@H](N)Cc1cc2c(NCc3ncccc3F)nc(Cl)nn2c1Br [Compound 3, 6-((2R,3S)-2-amino-3-fluorobutyl)-7-bromo-2-chloro-N-((3-fluoropyridin-2-yl)methyl)pyrrolo[2,1-f][1,2,4]triazin-4-amine]
  IC50: 501 to 5000 nM

## C[C@H](F)[C@H](N)Cc1cc2c(NCc3c(F)cncc3F)nc(Cl)nn2c1Br [Compound 4, 6-((2R,3S)-2-amino-3-fluorobutyl)-7-bromo-2-chloro-N-((3,5-difluoropyridin-4-yl)methyl)pyrrolo[2,1-f][1,2,4]triazin-4-amine]
  IC50: 101 to 500 nM

## Cc1c(C[C@@H](N)[C@H](C)F)cc2c(NCc3ccncc3)nc(Cl)nn12 [Compound 5, 6-((2R,3S)-2-amino-3-fluorobutyl)-2-chloro-7-methyl-N-(pyridin-4-ylmethyl)pyrrolo[2,1-f][1,2,4]triazin-4-amine]
  IC50: 101 to 500 nM

## Cc1c(C[C@@H](N)[C@H](C)F)cc2c(NCc3ccncn3)nc(Cl)nn12 [Compound 6, 6-((2R,3S)-2-amino-3-fluorobutyl)-2-chloro-7-methyl-N-(pyrimidin-4-ylmethyl)pyrrolo[2,1-f][1,2,4]triazin-4-amine]
  IC50: 101 to 500 nM

## Cc1c(C[C@@H](N)[C@H](C)F)cc2c(NCc3ccncc3F)nc(Cl)nn12 [Compound 7, 6-((2R,3S)-2-amino-3-fluorobutyl)-2-chloro-N-((3-fluoropyridin-4-yl)methyl)-7-methylpyrrolo[2,1-f][1,2,4]triazin-4-amine]
  IC50: 101 to 500 nM

## Cc1c(C[C@@H](N)CC2CC2)cc2c(NCc3ccncc3)nc(Cl)nn12 [Compound 8, (S)-6-(2-amino-3-cyclopropylpropyl)-2-chloro-7-methyl-N-(pyridin-4-ylmethyl)pyrrolo[2,1-f][1,2,4]triazin-4-amine]
  IC50: 501 to 5000 nM

## Cc1c(C[C@@H](N)CC2CC2)cc2c(NCc3ccncn3)nc(Cl)nn12 [Compound 9, (S)-6-(2-amino-3-cyclopropylpropyl)-2-chloro-7-methyl-N-(pyrimidin-4-ylmethyl)pyrrolo[2,1-f][1,2,4]triazin-4-amine]
  IC50: 501 to 5000 nM

## Cc1c(C[C@@H](N)CC2CC2)cc2c(NCc3ccncc3F)nc(Cl)nn12 [Compound 10, (S)-6-(2-amino-3-cyclopropylpropyl)-2-chloro-N-((3-fluoropyridin-4-yl)methyl)-7-methylpyrrolo[2,1-f][1,2,4]triazin-4-amine]
  IC50: 501 to 5000 nM
